The source of these data is patent US20250262241A1, “METHODS TO IMPROVE STABILITY OF VIRUS TRANSDUCTION OF y8 T CELLS AND APPLICATIONS THEREOF” (UNICET BIOTECH CO. LLC., priority 2021, published 2025).

Like-named read-outs stand apart in the source and are kept apart here.

Series [1] relates to γδ2 T cells. Nature of the series: CAR (B7H3) related lentivirus transduction of γδ2 T cells with small inhibitors: transduction rate. Format: cell-based, human. How it is done:
VSV-G pseudotyped lentiviral vectors were applied in this method. 1×10^7 293T cells were plated into a poly-D-lysine coated 100 mm dish. Next day the cells were transfected with 6 μg of pCDH-EF1-MCS-T2A-copGFP plasmid (Addgene, Plasmid #72263) or pCDH-EF1-CAR-T2A-copGFP plasmid modified from pCDH-EF1-MCS-T2A-copGFP, 4 μg of pspAx2 (Addgene, Plasmid #12260), 2 μg of pCMV-VSV-G (Addgene, Plasmid #8454) using 30 ug PEI transfection regents. After 8 hours of transfection, the cell culture medium was changed. The supernatant were collected 48 hours and 72 hours later. Concentrated the virus with Lenti-X™ Concentrator (Takara) and monitored the virus titers by transduction of 293T cells and stored the concentrated virus in −80° C. until further use.
(§1) For lentivirus transduction, 1×10^CFU lentivirus diluted in 200 ul PBS were added in a 24-well plate which were pre-coated with RetroNectin reagent (Takara) and centrifugated by 2,000 g for 2 hours at 32° C. After centrifugation, removed the supernatant and washed the plate with PBS three times slightly.
For the virus transduction of γδ2 T cells, seeded 1×10^PBMCs which were in vitro cultured after 48 hours in the γδ2 T cell culture medium mentioned above (Gibco serum free medium with rhIL-2 and ZOL). Added or not small inhibitors and mixed well and concentrated the cells by 800 g for 10 mins at 32° C. The plates were incubated at 37° C., 5% CO2. Discarded the small inhibitors regent by changing the cell culture medium 24 hours later.
Calculate the cell number by an automated cell counter and the transduction rate (GFP positive rate) was analyzed by flow cytometry every 2 to 3 days. The transduction rate was monitored in the gate of γδ2 or γδ1 T cells.

In the next series the test system is γδ1 T cells. Nature of the series: CAR related lentivirus transduction of γδ1 T cells with small inhibitors. Format: cell-based, human. The following applies: control finally around 2%. How it is done:
as §1
(§2) The plates were incubated at 37° C., 5% CO2.
To test the application of these small molecule on improving the transduction rate of δδ1 T cells. We evaluated the transduction rate of δδ1 T cells with/without different dosage of small molecules.

Series [2] has as its system γδ2 T cells. The class given is cell-based, human. How it is done:
as §2

Series [3] concerns the target ubiquitin-specific protease USP7 (Homo sapiens, UniProt Q93009). The following applies: cited from earlier work.
For series [4], the target named is T1, ubiquitin-specific protease USP21 (Homo sapiens, UniProt Q9UK80).
T1 sequence (Q9UK80 1-565): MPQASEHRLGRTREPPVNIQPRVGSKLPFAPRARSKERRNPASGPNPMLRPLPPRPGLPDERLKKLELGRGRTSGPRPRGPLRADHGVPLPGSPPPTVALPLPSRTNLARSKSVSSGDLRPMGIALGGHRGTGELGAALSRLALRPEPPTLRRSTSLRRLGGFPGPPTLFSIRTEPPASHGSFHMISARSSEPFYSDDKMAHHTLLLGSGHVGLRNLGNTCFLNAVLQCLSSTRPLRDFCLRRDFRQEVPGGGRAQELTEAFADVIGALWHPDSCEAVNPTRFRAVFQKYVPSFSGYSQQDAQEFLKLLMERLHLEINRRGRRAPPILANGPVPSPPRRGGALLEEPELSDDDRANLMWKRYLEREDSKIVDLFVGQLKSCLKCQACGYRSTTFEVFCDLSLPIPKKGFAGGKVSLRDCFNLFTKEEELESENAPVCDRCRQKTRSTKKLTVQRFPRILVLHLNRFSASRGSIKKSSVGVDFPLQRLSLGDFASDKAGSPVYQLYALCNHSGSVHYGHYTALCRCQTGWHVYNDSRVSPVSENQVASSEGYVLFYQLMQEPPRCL
The following applies: cited from earlier work.

Chain of ubiquitin-specific protease USP7 (Q93009 whole entry): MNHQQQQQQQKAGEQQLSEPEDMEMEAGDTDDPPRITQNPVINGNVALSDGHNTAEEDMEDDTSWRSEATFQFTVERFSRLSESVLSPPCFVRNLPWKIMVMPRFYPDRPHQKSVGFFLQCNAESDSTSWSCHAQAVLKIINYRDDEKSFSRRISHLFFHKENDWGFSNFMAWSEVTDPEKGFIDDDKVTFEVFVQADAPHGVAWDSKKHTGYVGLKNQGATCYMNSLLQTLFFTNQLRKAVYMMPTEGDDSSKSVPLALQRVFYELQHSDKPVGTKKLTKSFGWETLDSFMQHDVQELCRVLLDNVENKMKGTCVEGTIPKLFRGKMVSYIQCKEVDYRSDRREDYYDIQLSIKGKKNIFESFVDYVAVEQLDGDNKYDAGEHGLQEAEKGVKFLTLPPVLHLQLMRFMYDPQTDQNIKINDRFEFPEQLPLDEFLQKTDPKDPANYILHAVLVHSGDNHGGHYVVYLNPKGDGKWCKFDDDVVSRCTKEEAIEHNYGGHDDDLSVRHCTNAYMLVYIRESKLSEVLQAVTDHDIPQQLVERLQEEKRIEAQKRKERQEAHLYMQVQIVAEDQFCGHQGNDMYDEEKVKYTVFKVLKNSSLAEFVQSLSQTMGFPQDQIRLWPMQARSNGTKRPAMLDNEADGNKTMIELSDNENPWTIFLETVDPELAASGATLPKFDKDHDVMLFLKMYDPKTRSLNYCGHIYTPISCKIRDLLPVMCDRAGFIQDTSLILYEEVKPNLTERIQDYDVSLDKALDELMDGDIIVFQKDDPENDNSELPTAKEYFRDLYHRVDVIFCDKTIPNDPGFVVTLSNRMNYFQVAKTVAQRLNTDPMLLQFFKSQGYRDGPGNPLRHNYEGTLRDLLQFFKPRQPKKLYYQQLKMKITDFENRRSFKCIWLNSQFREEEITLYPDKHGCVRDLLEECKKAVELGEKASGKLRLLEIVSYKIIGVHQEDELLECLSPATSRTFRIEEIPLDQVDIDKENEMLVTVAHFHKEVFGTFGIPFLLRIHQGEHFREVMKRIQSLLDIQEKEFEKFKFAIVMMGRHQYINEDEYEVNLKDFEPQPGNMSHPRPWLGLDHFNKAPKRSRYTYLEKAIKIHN

Regarding `COc1cc(O)c2c(c1)/C=C/C[C@H](O)[C@H](O)C(=O)/C=C\C[C@H](C)OC2=O` [(5Z)-7-Oxozeaenol], the transduction rate entry is “higher than 20%” with γδ2 T cells [1] (0.6 uM, control around 5% at Day10) and “higher than 30%” in the series on γδ2 T cells [1] (6 uM, control around 5% at Day10). Moreover, the “effect on transduction rate” value in the series on γδ2 T cells [1] (60 uM compared with 6 uM) is reported as “did not perform better to improve the transduction rate”. Moreover, the “effect on transduction rate of γδ1 T cells” value (shortened to “effect … of γδ1 T cells”) with γδ1 T cells (6 uM) is given as “could improve the transduction rate”. The cell growth entry in the series on γδ2 T cells [2] (0.6 uM and 6 uM) was “did not influence the cell growth”; in the series on γδ2 T cells [2] (60 uM compared with 6 uM), “impaired the cell growth”.
`CC(C)C[C@H](NC(=O)[C@H](Cc1ccccc1)NC(=O)c1cnccn1)B(O)O` [Bortezomib]: the transduction rate was around 50% in the series on γδ2 T cells [1] (0.04 uM, control around 5% at Day10); “higher than 20%” in the series on γδ2 T cells [1] (0.4 uM and 4 uM, control around 5% at Day10). Further, in the series on γδ1 T cells (0.04 μM, 0.4 μM or 4 μM), the “effect … of γδ1 T cells” value was “All the molecules except for Bortezomib could improve the transduction rate”. Moreover, the cell growth result in the series on γδ2 T cells [2] (0.04 uM, 0.4 uM, 4 uM) is listed as “impaired the cell growth in a dosage dependent manner”. In addition, in the series on γδ2 T cells [2] (0.4 uM and 4 uM), the cell number entry is given as “significantly cell number loss”.
For the molecule `COc1cc(/C=C/C(=O)CC(=O)/C=C/c2ccc(O)c(OC)c2)ccc1O` [Curcumin], in the series with γδ2 T cells [1] (10 uM, day 10, control around 5%), the transduction rate entry is recorded as “higher than 20%”. Besides, the figures for the “effect on transduction rate” value in the series on γδ2 T cells [1] (100 uM (highest dosage)) and in the series with γδ2 T cells [1] (luM (low dosage)) were “slightly enhance the transduction rate” and “did not enhance the transduction rate”, respectively. Besides, in the series with γδ1 T cells (10 uM), the “effect … of γδ1 T cells” value is “could improve the transduction rate”. For the same molecule, the cell growth result with γδ2 T cells [2] (10 uM) is given as “inhibited the cell growth slightly”; in the series on γδ2 T cells [2] (100 uM), “significantly impaired the cell growth”; in the series on γδ2 T cells [2] (luM (low dosage)), “enhanced the cell growth”.
As to `O=C(Nc1nc2ccccc2n1CCN1CCOCC1)c1cccc([N+](=O)[O-])c1` [IRAK1/4 Inhibitor I], the “effect on transduction rate” value with γδ2 T cells [1] (0.03 uM to 3 uM) was “enhance the transduction rate in a dosage dependent manner”. Further, the transduction rate entry with γδ2 T cells [1] (3 uM, control around 5% at Day10) is “higher than 35%”. Further, the “effect … of γδ1 T cells” value with γδ1 T cells (0.3 uM) is given as “could improve the transduction rate”. In addition, the cell growth result with γδ2 T cells [2] (0.03 uM to 3 uM) is “did not impair the cell growth”.
In the case of `Cc1ccc(S(=O)(=O)/C=C/C#N)cc1` [BAY11-7082], the “effect on transduction rate” value in the series with γδ2 T cells [1] (0.5 uM to 50 uM) was “enhance the transduction rate in a dosage dependent manner”. The transduction rate result in the series on γδ2 T cells [1] (50 uM, control around 5% at Day10) was “higher than 70%”. Further, the “effect … of γδ1 T cells” value in the series with γδ1 T cells (50 uM) is listed as “could improve the transduction rate”. Besides, in the series on γδ2 T cells [2] (0.5 uM to 50 uM, higher dosage, less total cell number), the cell growth result was “impaired the cell growth in a dosage dependent manner”. Moreover, the half-inhibitory concentration (IC50) in series [3] was 190 nM; in series [4], 960 nM.
As to `Nc1ncc2[nH]cnc2n1` [2-Aminopurine], in the series on γδ2 T cells [1] (5 uM to 500 uM), the “effect on transduction rate” value was “enhance the transduction rate in a dosage dependent manner”. Moreover, the transduction rate result with γδ2 T cells [1] (500 uM, control around 5% at Day10) was “around 60%”. The “effect … of γδ1 T cells” value with γδ1 T cells (500 uM) is listed as “could improve the transduction rate”. For the same molecule, in the series with γδ2 T cells [2] (5 uM to 500 uM), the cell growth entry was “did not impair the cell growth”.
For `C[C@@H]1C[C@H]2[C@@H]3CCC4=CC(=O)C=C[C@]4(C)[C@@]3(F)[C@@H](O)C[C@]2(C)[C@@]1(O)C(=O)CO` [Dexamethasone], the transduction rate entry in the series with γδ2 T cells [1] (6.4 uM, control around 5% at Day10) was “higher than 25%”. For the same molecule, in the series with γδ2 T cells [2] (0.064 uM to 6.4 uM), the cell growth result is “did not impair the cell growth”.
